Reference: the supplement of paper PMC10307832

How the values were obtained:
Assay in all cases: relative viability (nuclei count vs DMSO), 5 days (fraction); higher = more cells survive
EHT 1864 + AZD7762 = compound: C1COCCN1CC2=CC(=O)C(=CO2)OCCCCCSC3=C4C=CC(=CC4=NC=C3)C(F)(F)F [EHT 1864] + NC(=O)Nc1cc(-c2cccc(F)c2)sc1C(=O)N[C@H]1CCCNC1 [AZD7762] (partner 0.2 µM)
How it was run: (§1)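 For relative viability, nuclei counts in treated wells were divided by those in vehicle wells. Lung cancer cell lines had been pin-tool dosed in 1536-well plates the day after seeding and cultured for 5 days, then fixed and stained in one step (final 0.05% Triton X-100, 1% formaldehyde, 1 ug/ml Hoechst) and imaged at 4×. Doses were one drug alone or a fixed anchor-drug dose plus five library-drug doses (not always all listed) in √10 steps, and values are duplicate-plate medians.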

EHT 1864 + Pemetrexed = compound: C1COCCN1CC2=CC(=O)C(=CO2)OCCCCCSC3=C4C=CC(=CC4=NC=C3)C(F)(F)F [EHT 1864] + Nc1nc2[nH]cc(CCc3ccc(C(=O)N[C@@H](CCC(=O)O)C(=O)O)cc3)c2c(=O)[nH]1 [Pemetrexed] (partner 0.2 µM)
How it was run: as §1

EHT 1864 + OSI-027 = compound: C1COCCN1CC2=CC(=O)C(=CO2)OCCCCCSC3=C4C=CC(=CC4=NC=C3)C(F)(F)F [EHT 1864] + COc1cccc2cc(-c3nc([C@H]4CC[C@H](C(=O)O)CC4)n4ncnc(N)c34)[nH]c12 [OSI-027] (partner 0.5 µM)
How it was run: as §1

EHT 1864 + Foretinib = compound: C1COCCN1CC2=CC(=O)C(=CO2)OCCCCCSC3=C4C=CC(=CC4=NC=C3)C(F)(F)F [EHT 1864] + COc1cc2c(Oc3ccc(NC(=O)C4(C(=O)Nc5ccc(F)cc5)CC4)cc3F)ccnc2cc1OCCCN1CCOCC1 [Foretinib] (partner 0.25 µM)
How it was run: as §1

Cell Line: HCC-827
- relative viability (EHT 1864 + AZD7762; first compound 0.04 µM): 0.198
- relative viability (EHT 1864 + AZD7762; first compound 0.1265 µM): 0.22
- relative viability (EHT 1864 + AZD7762; first compound 0.4 µM): 0.228
- relative viability (EHT 1864 + AZD7762; first compound 1.265 µM): 0.252
- relative viability (EHT 1864 + AZD7762; first compound 4 µM): 0.201
- relative viability (EHT 1864 + Pemetrexed; first compound 0.04 µM): 0.279
- relative viability (EHT 1864 + Pemetrexed; first compound 0.1265 µM): 0.27
- relative viability (EHT 1864 + Pemetrexed; first compound 0.4 µM): 0.227
- relative viability (EHT 1864 + Pemetrexed; first compound 1.265 µM): 0.3
- relative viability (EHT 1864 + Pemetrexed; first compound 4 µM): 0.235
- relative viability (EHT 1864 + OSI-027; first compound 0.04 µM): 0.733
- relative viability (EHT 1864 + OSI-027; first compound 0.1265 µM): 0.646
- relative viability (EHT 1864 + OSI-027; first compound 0.4 µM): 0.732
- relative viability (EHT 1864 + OSI-027; first compound 1.265 µM): 0.7
- relative viability (EHT 1864 + OSI-027; first compound 4 µM): 0.657
- relative viability (EHT 1864 + Foretinib; first compound 0.04 µM): 0.985
- relative viability (EHT 1864 + Foretinib; first compound 0.1265 µM): 0.965
- relative viability (EHT 1864 + Foretinib; first compound 0.4 µM): 1.01
- relative viability (EHT 1864 + Foretinib; first compound 1.265 µM): 0.977
- relative viability (EHT 1864 + Foretinib; first compound 4 µM): 0.928

Cell Line: HCC-78
- relative viability (EHT 1864 + AZD7762; first compound 0.04 µM): 0.82
- relative viability (EHT 1864 + AZD7762; first compound 0.1265 µM): 0.59
- relative viability (EHT 1864 + AZD7762; first compound 0.4 µM): 0.67
- relative viability (EHT 1864 + AZD7762; first compound 1.265 µM): 0.602
- relative viability (EHT 1864 + AZD7762; first compound 4 µM): 0.422
- relative viability (EHT 1864 + Pemetrexed; first compound 0.04 µM): 0.868
- relative viability (EHT 1864 + Pemetrexed; first compound 0.1265 µM): 0.866
- relative viability (EHT 1864 + Pemetrexed; first compound 0.4 µM): 0.823
- relative viability (EHT 1864 + Pemetrexed; first compound 1.265 µM): 0.889
- relative viability (EHT 1864 + Pemetrexed; first compound 4 µM): 0.937
- relative viability (EHT 1864 + OSI-027; first compound 0.04 µM): 0.373
- relative viability (EHT 1864 + OSI-027; first compound 0.1265 µM): 0.337
- relative viability (EHT 1864 + OSI-027; first compound 0.4 µM): 0.305
- relative viability (EHT 1864 + OSI-027; first compound 1.265 µM): 0.37
- relative viability (EHT 1864 + OSI-027; first compound 4 µM): 0.375
- relative viability (EHT 1864 + Foretinib; first compound 0.04 µM): 0.578
- relative viability (EHT 1864 + Foretinib; first compound 0.1265 µM): 0.474
- relative viability (EHT 1864 + Foretinib; first compound 0.4 µM): 0.538
- relative viability (EHT 1864 + Foretinib; first compound 1.265 µM): 0.606
- relative viability (EHT 1864 + Foretinib; first compound 4 µM): 0.633

Cell Line: NCI-H2085
- relative viability (EHT 1864 + AZD7762; first compound 0.04 µM): 0.962
- relative viability (EHT 1864 + AZD7762; first compound 0.1265 µM): 0.645
- relative viability (EHT 1864 + AZD7762; first compound 0.4 µM): 0.973
- relative viability (EHT 1864 + AZD7762; first compound 1.265 µM): 0.987
- relative viability (EHT 1864 + AZD7762; first compound 4 µM): 0.942
- relative viability (EHT 1864 + Pemetrexed; first compound 0.04 µM): 0.908
- relative viability (EHT 1864 + Pemetrexed; first compound 0.1265 µM): 0.646
- relative viability (EHT 1864 + Pemetrexed; first compound 0.4 µM): 0.969
- relative viability (EHT 1864 + Pemetrexed; first compound 1.265 µM): 0.967
- relative viability (EHT 1864 + Pemetrexed; first compound 4 µM): 0.882
- relative viability (EHT 1864 + OSI-027; first compound 0.04 µM): 0.719
- relative viability (EHT 1864 + OSI-027; first compound 0.4 µM): 0.772
- relative viability (EHT 1864 + OSI-027; first compound 1.265 µM): 0.719
- relative viability (EHT 1864 + OSI-027; first compound 4 µM): 0.812
- relative viability (EHT 1864 + Foretinib; first compound 0.04 µM): 1.13
- relative viability (EHT 1864 + Foretinib; first compound 0.4 µM): 0.9
- relative viability (EHT 1864 + Foretinib; first compound 1.265 µM): 0.92
- relative viability (EHT 1864 + Foretinib; first compound 4 µM): 0.89

Cell Line: PC-14
- relative viability (EHT 1864 + AZD7762; first compound 0.04 µM): 0.368
- relative viability (EHT 1864 + AZD7762; first compound 0.1265 µM): 0.248
- relative viability (EHT 1864 + AZD7762; first compound 0.4 µM): 0.394
- relative viability (EHT 1864 + AZD7762; first compound 1.265 µM): 0.304
- relative viability (EHT 1864 + AZD7762; first compound 4 µM): 0.433
- relative viability (EHT 1864 + Pemetrexed; first compound 0.04 µM): 0.121
- relative viability (EHT 1864 + Pemetrexed; first compound 0.1265 µM): 0.124
- relative viability (EHT 1864 + Pemetrexed; first compound 0.4 µM): 0.137
- relative viability (EHT 1864 + Pemetrexed; first compound 1.265 µM): 0.133
- relative viability (EHT 1864 + Pemetrexed; first compound 4 µM): 0.133
- relative viability (EHT 1864 + OSI-027; first compound 0.04 µM): 0.813
- relative viability (EHT 1864 + OSI-027; first compound 0.1265 µM): 0.75
- relative viability (EHT 1864 + OSI-027; first compound 0.4 µM): 0.814
- relative viability (EHT 1864 + OSI-027; first compound 1.265 µM): 1.05
- relative viability (EHT 1864 + OSI-027; first compound 4 µM): 0.88
- relative viability (EHT 1864 + Foretinib; first compound 0.04 µM): 0.997
- relative viability (EHT 1864 + Foretinib; first compound 0.1265 µM): 0.906
- relative viability (EHT 1864 + Foretinib; first compound 0.4 µM): 0.994
- relative viability (EHT 1864 + Foretinib; first compound 1.265 µM): 0.932
- relative viability (EHT 1864 + Foretinib; first compound 4 µM): 0.878
